Data taken from PubChem BioAssay (NCI).
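Five compound concentrations were applied to cells in 96-well plates for 48 hours; endpoints were derived by simple linear interpolation of the resulting dose-response curve. At the TGI there is no net growth.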

Columns and labels:
Test in all cases: growth of human tumour cells (NCI), 48 h
DU-145 prostate = test system: DU-145 prostate
HOP-62 NSCLC = test system: HOP-62 NSCLC
MALME-3M melanoma = test system: MALME-3M melanoma
PC-3 prostate = test system: PC-3 prostate
SF-539 CNS = test system: SF-539 CNS
SK-MEL-2 melanoma = test system: SK-MEL-2 melanoma
SK-MEL-28 melanoma = test system: SK-MEL-28 melanoma
SNB-75 CNS = test system: SNB-75 CNS
SR leukemia = test system: SR leukemia
TK-10 renal = test system: TK-10 renal

Row | Structure (SMILES) | TGI (DU-145 prostate) | TGI (HOP-62 NSCLC) | TGI (MALME-3M melanoma) | TGI (PC-3 prostate) | TGI (SF-539 CNS) | TGI (SK-MEL-2 melanoma) | TGI (SK-MEL-28 melanoma) | TGI (SNB-75 CNS) | TGI (SR leukemia) | TGI (TK-10 renal)
1 | NS(=O)(=O)c1ccc(NNC(=O)c2cccc3c(=O)c4ccccc4[nH]c23)cc1 | > 100 µM | > 100 µM | > 100 µM | > 100 µM | > 100 µM | > 100 µM | > 100 µM | > 100 µM | > 100 µM | > 100 µM
2 | COC(=O)N1CC[C@@H]2CCC=C(c3cccc4c3OCO4)[C@@H]21 | > 100 µM | > 100 µM | > 100 µM | > 100 µM | > 100 µM | > 100 µM | > 100 µM | 62 µM | > 100 µM | > 100 µM
3 | CCOC(=O)c1ccc(N=C2SC(=S)N(c3ccc(F)cc3)C2=Nc2ccc(C(=O)OCC)cc2)cc1 | > 100 µM | > 89 µM | 36.6 µM | 40.6 µM | 42.7 µM | 35 µM | 42.3 µM | 52.4 µM | 29.3 µM | 36.6 µM
4 | CCOC(=O)C(SCCO)C(C(=O)OCC)n1ccc(N)nc1=O (stereo not given) | > 100 µM | > 100 µM | > 100 µM | > 100 µM | > 100 µM | > 100 µM | > 100 µM | > 100 µM | > 100 µM | > 100 µM
5 | O=C(ON=c1c2ccccc2ccc2ccccc12)c1cc([N+](=O)[O-])cc([N+](=O)[O-])c1 | > 100 µM | > 100 µM | 77.4 µM | > 100 µM | > 100 µM | > 100 µM | > 100 µM | > 100 µM | > 100 µM | > 100 µM
6 | CCOC(=O)C(Cc1ccc2c(c1)CCC2)(Cc1ccc2c(c1)CCC2)C(=O)OCC | > 100 µM | > 100 µM | 89.2 µM | > 100 µM | > 100 µM | > 100 µM | > 100 µM | > 100 µM | 55.1 µM | > 100 µM
7 | C=C1C(=O)OC2/C=C(\C)CC/C=C(/C)CC(OC(=O)/C(=C/CO)CO)C12 (stereo not given) | 33.1 µM | > 100 µM | 42.2 µM | > 100 µM | 66.3 µM | 64 µM | 77.2 µM | > 100 µM | > 100 µM | 34.5 µM
8 | COc1ccc(C2CCc3nc4nc(N)nc(N)c4cc3C2)cc1 (stereo not given) | > 100 µM | 33.9 µM | > 100 µM | > 100 µM | 30.9 µM | 42.3 µM | 65 µM | 5.09 µM | 67.3 µM | 24.9 µM
9 | Oc1c(C(O)(c2ccccc2)c2ccc3ccccc3c2O)ccc2ccccc12 | 34.6 µM | 35.6 µM | 26.4 µM | 20.7 µM | 36.1 µM | 26.4 µM | 33.3 µM | 34.5 µM | 10.7 µM | 26.8 µM
10 | O=C1C(NS(=O)(=O)c2ccccc2)=C(n2cnc3ccccc32)C(=O)c2ccccc21 | > 100 µM | > 100 µM | > 100 µM | > 100 µM | > 100 µM | > 100 µM | > 100 µM | 85 µM | > 100 µM | > 100 µM
11 | O=C(CC(=O)c1ccncc1)c1ccccc1 | > 100 µM | > 100 µM | > 89.2 µM | > 100 µM | > 100 µM | > 100 µM | > 100 µM | > 100 µM | > 100 µM | > 100 µM
12 | CC(C)OP(=O)(OC(C)C)C(C(F)(F)F)C(F)(F)F | > 100 µM | > 100 µM | > 100 µM | > 100 µM | > 100 µM | > 100 µM | > 100 µM | > 100 µM | > 100 µM | > 100 µM
13 | CN1CN(c2ccccc2)C2(CCNCC2)C1=O | > 100 µM | > 100 µM | > 100 µM | > 100 µM | > 100 µM | > 100 µM | > 100 µM | > 100 µM | > 100 µM | > 100 µM
